Source: ChEMBL document CHEMBL1201862, “PubChem BioAssay data set” (2004)
Values joined by “and” are separate entries in the source; they are usually repeats but may differ in a detail not shown here. Equal entries are not always repeated. Active and inactive are the calls of the source.

Key:
[1] = biological target: T1, Histone-lysine N-methyltransferase NSD2 (Homo sapiens, UniProt O96028); format: biochemical
T1 sequence (O96028 whole entry): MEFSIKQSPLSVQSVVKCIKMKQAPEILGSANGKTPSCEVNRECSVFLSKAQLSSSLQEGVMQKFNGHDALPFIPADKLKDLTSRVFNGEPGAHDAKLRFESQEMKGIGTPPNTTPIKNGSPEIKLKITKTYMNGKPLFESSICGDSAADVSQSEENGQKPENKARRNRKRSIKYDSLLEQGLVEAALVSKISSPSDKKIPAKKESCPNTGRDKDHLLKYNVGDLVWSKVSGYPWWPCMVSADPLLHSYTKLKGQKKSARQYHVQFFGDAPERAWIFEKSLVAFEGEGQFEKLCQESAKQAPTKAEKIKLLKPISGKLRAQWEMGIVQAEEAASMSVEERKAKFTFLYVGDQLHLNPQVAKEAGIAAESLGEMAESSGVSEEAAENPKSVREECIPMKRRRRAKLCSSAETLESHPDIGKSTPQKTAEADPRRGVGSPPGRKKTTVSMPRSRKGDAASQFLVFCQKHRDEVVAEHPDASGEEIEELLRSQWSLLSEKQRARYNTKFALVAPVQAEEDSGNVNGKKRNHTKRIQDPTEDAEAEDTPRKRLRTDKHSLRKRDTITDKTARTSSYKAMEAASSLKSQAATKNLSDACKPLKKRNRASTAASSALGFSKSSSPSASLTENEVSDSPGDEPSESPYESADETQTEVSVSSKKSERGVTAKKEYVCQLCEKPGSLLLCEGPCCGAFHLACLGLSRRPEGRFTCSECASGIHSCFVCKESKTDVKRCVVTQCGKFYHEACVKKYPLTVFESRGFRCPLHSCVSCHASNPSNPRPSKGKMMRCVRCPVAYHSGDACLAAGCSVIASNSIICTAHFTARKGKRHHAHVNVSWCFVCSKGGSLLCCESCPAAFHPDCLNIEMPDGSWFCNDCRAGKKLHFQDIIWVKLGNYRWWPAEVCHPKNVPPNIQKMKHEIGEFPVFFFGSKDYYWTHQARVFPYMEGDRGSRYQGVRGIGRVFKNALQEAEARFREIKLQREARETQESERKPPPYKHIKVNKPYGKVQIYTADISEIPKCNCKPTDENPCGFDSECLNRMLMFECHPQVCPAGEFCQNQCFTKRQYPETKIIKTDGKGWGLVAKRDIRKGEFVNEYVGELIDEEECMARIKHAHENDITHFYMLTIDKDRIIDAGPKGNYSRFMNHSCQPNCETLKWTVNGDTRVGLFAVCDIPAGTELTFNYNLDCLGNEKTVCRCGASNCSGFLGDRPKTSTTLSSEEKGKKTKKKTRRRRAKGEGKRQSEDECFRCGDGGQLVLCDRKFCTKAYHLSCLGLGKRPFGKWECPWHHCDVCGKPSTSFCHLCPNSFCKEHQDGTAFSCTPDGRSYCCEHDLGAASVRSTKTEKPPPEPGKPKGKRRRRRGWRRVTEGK

[2] = biological target: T2, Sentrin-specific protease 8 (Homo sapiens, UniProt Q96LD8); format: functional;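 note: luminescence read-out of SENP8 inhibition, dose-response confirmation following an ultra-high-throughput screen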
T2 sequence (Q96LD8 whole entry): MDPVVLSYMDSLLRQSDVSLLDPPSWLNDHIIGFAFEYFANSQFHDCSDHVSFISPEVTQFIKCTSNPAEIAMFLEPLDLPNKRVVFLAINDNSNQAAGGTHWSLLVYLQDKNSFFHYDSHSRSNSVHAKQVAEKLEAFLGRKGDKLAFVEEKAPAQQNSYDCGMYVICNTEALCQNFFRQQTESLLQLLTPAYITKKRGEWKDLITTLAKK

[3] = biological target: T3, Sentrin-specific protease 7 (Homo sapiens, UniProt Q9BQF6); format: functional;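 note: Luminescence-based dose-response confirmation of ultra-high-throughput screening hits, measuring inhibition of SENP7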
T3 sequence (Q9BQF6 whole entry): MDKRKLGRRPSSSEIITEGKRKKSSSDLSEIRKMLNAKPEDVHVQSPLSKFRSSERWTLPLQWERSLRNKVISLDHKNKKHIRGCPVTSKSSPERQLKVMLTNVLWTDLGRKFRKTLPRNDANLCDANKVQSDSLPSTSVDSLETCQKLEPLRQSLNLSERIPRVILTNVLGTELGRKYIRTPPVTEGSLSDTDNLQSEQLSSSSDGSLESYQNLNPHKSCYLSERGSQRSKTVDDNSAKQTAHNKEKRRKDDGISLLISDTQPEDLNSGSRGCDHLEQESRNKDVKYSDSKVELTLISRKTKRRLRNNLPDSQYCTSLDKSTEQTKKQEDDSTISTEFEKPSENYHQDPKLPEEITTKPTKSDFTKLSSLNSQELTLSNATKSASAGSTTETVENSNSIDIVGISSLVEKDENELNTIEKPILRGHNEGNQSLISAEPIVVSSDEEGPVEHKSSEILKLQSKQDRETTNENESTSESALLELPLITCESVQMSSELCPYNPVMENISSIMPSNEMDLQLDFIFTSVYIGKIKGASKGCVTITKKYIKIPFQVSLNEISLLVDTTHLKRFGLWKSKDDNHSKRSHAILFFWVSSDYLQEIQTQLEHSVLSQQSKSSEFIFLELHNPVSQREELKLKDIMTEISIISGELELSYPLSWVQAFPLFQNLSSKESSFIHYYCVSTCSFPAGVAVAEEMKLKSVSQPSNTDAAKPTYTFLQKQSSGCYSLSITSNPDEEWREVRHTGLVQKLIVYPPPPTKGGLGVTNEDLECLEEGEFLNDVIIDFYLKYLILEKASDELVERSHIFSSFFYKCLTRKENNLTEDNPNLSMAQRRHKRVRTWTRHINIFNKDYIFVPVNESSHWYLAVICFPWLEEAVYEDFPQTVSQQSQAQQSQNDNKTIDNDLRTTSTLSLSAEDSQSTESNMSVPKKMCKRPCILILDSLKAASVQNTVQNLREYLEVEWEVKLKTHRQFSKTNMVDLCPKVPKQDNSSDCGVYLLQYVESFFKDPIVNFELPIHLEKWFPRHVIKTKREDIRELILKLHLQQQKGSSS

SMILES | AC50 [1] | IC50 [2] | IC50 [3]
CCN1/C(=C/c2ccc3cc(C)ccc3[n+]2CC)Sc2cc(C)c(C)cc21 | 19.5 µM (active) and 8.3 µM (active) | – | –
COc1ccc(C(=O)Nc2nc3c(s2)Cc2cc(OC)ccc2-3)cc1 | – | 2.29 µM (active) | 2.36 µM (active)
Cc1oc2c(c1C(=O)c1ccccc1)C(=O)C(=O)c1ccccc1-2 | 14.3 µM (active) | 12.8 µM (active) | 9.15 µM (active)
O=C1C(Cl)=C(NCCN2CCCCC2)C(=O)c2ccccc21 | 6.54 µM (active) | – | –
COc1cc(NCCCNC(C)C)c2nccc(C)c2c1 | 9.71 µM (active) | – | –
CC(/C=C1\SC(=S)N(NS(=O)(=O)c2ccccc2)C1=O)=C\c1ccccc1 | 13 µM (active) | 2.86 µM (active) | 30.7 µM (active)
